In patent publication US20170121687A1, “METHODS OF CELLULAR REPROGRAMMING” (Agency for Science, Technology and Research, priority 2014, published 2017):

tested on: IMR90; test: Integrin ligation step with other extracellular matrices and growth factors after antibody induction; assay type: cell-based, human; conditions: FIG. 12-15
Experimental: Cells were detached using conventional cell culture techniques and 60000 suspended cells in 100 μL media were incubated with 2 μg of each of the following antibodies—Anti-Integrin alpha V [272-17E6] (Abcam, USA), Anti-Integrin alpha 5 [P1D6]—Azide free (Abcam, USA), Anti-Integrin beta 3 antibody [25E11], Anti-Integrin αV/β5 (P1F6) L (Santa Cruz Biotechnology, USA), Anti-Integrin αVβ6, clone 10D5 (Merck, USA)—for 30 minutes in a 37° C. incubator. Control antibody used was normal mouse IgG1 antibody (Santa Cruz Biotechnology, USA). The volume of the cell suspension was brought up to 250 μL for subsequent seeding in a 48-well tissue culture plate. Two days after antibody treatment, extracellular matrix was added into the media. Reprogramming of U251 cells followed a modified procedure, where a 3-antibody combination comprising Anti-Integrins αv, αvβ5 and αvβ6 was used. Two days after antibody treatment, the cells were transferred to ECM that had been pre-coated onto the culture wells. Extracellular matrices used are basement membrane matrix, Geltrex (Life Technologies, USA), laminin 332 and laminin 511 (Biolamina, Sweden). One day after addition of extracellular matrix, the media was changed to one of the following growth factors-supplemented media—1) SKP media made up of DMEM/F12 (Life Technologies, USA) supplemented with 1× B27 supplement (Life Technologies, USA), 40 ng/mL bFGF, 20 ng/mL EGF (Life Technologies, USA); 2) mTESR2 (Stemcell Technologies, USA).
Cells were lysed for RNA using TRIzol® Reagent (Invitrogen, USA) following manufacturer's instructions. Purified RNA was reverse transcribed into cDNA using iScript™ cDNA synthesis kit (Bio-Rad, USA). The reaction was carried out in a 20 μL volume containing 4 μL 5× iScript reaction mix, 1 μL iScript reverse transcriptase, RNA template (≦1000 ng total RNA) and nuclease free water (variable). The complete reaction mix was incubated for at 5 minutes at 25° C., 30 minutes at 42° C., 5 minutes at 85° C. followed by holding at 4° C. (optional).
Reaction was performed on iQ5 multi-colour real-time PCR detection system (Bio-Rad, USA) using the iTaq™ Universal SYBR® Green supermix (Bio-Rad, USA). The 20 μL volume reaction component includes 10 μL iTaq™ Universal SYBR® Green supermix, 1 μL of primer mix (5 μM forward primer, 5 μM reverse primer), 1 to 100 ng template and nuclease free water (variable).
The reaction conditions were as follows: 30 sec at 95° C., followed by 40 cycles of 15 sec at 95° C. and 30 sec at 60° C. […] Relative quantization of target mRNA expression, normalized to an endogenous control and relative to a calibrator, was calculated using the mathematical expression for fold change 2-ΔΔCt (fold change).

| Molecule | expression of MET and stemness markers |
| --- | --- |
| Laminin 521: extracellular matrix used during the integrin ligation step | positively influenced |
| HGF: hepatocyte growth factor | reduced expression of both MET and stemness markers |
| Laminin 511: extracellular matrix (Biolamina, Sweden) used during the integrin ligation step | positively influenced |
| KGF: keratinocyte growth factor (protein, UniProt P21781 32-194, looked up) Fibroblast growth factor 7: CNDMTPEQMATNVNCSSPERHTRSYDYMEGGDIRVRRLFCRTQWYLRIDKRGKVKGTQEMKNNYNIMEIRTVAVGIVAIKGVESEFYLAMNKEGKLYAKKECNEDCNFKELILENHYNTYASAKWTHNGGEMFVALNQKGIPVRGKKTKKEQKTAHFLPMAIT | did not appear to significantly affect |
